Values joined by “and” are separate entries in the source; they are usually repeats but may differ in a detail not shown here. Equal entries are not always repeated.
What was measured:
[1] = test system: Chang (normal liver) cells; assay: cells; type: cell-based; conditions: 72 h, WST-1, triplicate
Experimental: (§1) In vitro anticancer assays were performed in triplicate for the determination of mean values. The human cervical carcinoma SiHa, murine melanoma B16F10, chronic myelogenous leukemia (CML) K562, and Chang cell lines were cultured in minimum essential medium of Eagle at 37 °C in a […] atmosphere with 10% fetal bovine serum, 2 mM L-glutamine and 1% penicillin/streptomycin. Cells were trypsinized and seeded at a density of 5 × 10^4 cells/mL in a 96-well plate and incubated at 37 °C, […] atmosphere for 24 h. Thereafter the cells were treated with azetidin-2-one derivatives (dissolved in DMSO) at various concentrations between 312 nM–10 μM, and re-incubated for further 72 h. Wells containing the equal volume of the vehicle DMSO (1% v/v) were used as background (negative control). The culture medium was then removed and the cells washed with 100 μL phosphate buffered saline (PBS); then 10 μL WST-1 (Roche, USA) was added. Cells were incubated for 2 h in absence of light at 37°C, and absorbance was read subsequently. […] Afterwards, these values were used to assess half maximal inhibitory concentration (IC50) using Graph-Pad Prism software.

[2] = test system: SiHa (human cervical carcinoma) cells; assay: Cytotoxic activity, WST-1 assay, SiHa; type: cell-based
Experimental: as §1

[3] = test system: B16F10 (murine melanoma) cells; assay: Cytotoxic activity, WST-1 assay, B16F10; type: cell-based
Experimental: as §1

[4] = test system: K562 (human immortalized myelogenous leukemia) cells; assay: Cytotoxic activity, WST-1 assay, K562; type: cell-based
Experimental: as §1

[5] = test system: SiHa cells; assay: Hematoxylin/Eosin staining of SiHa cells; type: cell-based, human; conditions: 24 h, 6C 1 μM, taxol
Experimental: (§2) The cytotoxic effect of the compound 6C in SiHa and Chang cells has been studied (Figure 2).
(§3) Cells (10 × 10^4) were grown on coated poly-lysine coverslips which were placed in 6-well microplates overnight and then incubated for 24 h in the presence of compound 6C or taxol, subsequently stained with hematoxylin and eosin. Coverslips were then observed by Light microscopy of bright field (40X).

[6] = test system: Chang cells; assay: Hematoxylin/Eosin staining of Chang cells; type: cell-based; conditions: 24 h, 6C 1 μM, taxol
Experimental: as §2, §3

[7] = test system: caspase-3 activation in B16F10 cells; assay: Apoptotic activity, caspase-3 assay; type: cell-based, murine; conditions: 24 h, podophyllotoxin as positive control
Experimental: The mechanism of cell death was identified as apoptosis. It was validated with the compound 6C. Enzyme activity associated with the induction of apoptosis was determined by caspase-3 assay (Invitrogen, USA) as described in the protocol. A concentration of approximately 3 × 10^6 cells/mL (B16F10) was taken and incubated for 24 h at 37 °C in 5% CO2 environment. Podophyllotoxin (apoptosis inducing agent) was used as positive control. After incubation for 24 h the cells were re-suspended and 50 μL of cell lysis reagent was added, then cells were incubated for 10 min in ice bath and centrifuged. The supernatant (cytosol extract) was transferred into a new effendrof. Cytosol extract was diluted with cell lysis reagent to a concentration of 2 μg/μL, in a total volume of 50 μL. Then 50 μL of 2X reaction buffer and 5 μL of tetrapeptide-p-nitroaniline (DEVD-pNA) were added. It was incubated at 37 °C for 2 h (in dark), and finally the optical density at 405 nm was measured with an ELISA Reader. Caspase-3 activity was calculated that confirmed apoptosis as the mechanism of cell death.

SMILES: COc1ccc(N2C(=O)[C@@H](N)[C@H]2c2ccccn2)cc1 (racemic) [7C, (±)-Cis-3-amino-1-(4-methoxyphenyl)-4-(2-pyridyl)azetidin-2-one]
- IC50 [1]: 5.49 ± 0.4 µM
- IC50 ([2]; 72 h, WST-1, triplicate): 8.43 ± 0.3 µM
- IC50 ([3]; 72 h, WST-1, triplicate): > 10 µM
- IC50 ([4]; 72 h, WST-1, triplicate): 6.86 ± 0.4 µM

SMILES: COc1ccc(N2C(=O)[C@@H](N)[C@@H]2c2ccc(OC)c(OC)c2)cc1 (racemic) [3T, (±)-Trans-3-amino-4-(3,4-dimethoxyphenyl)-1-(4-methoxyphenyl) azetidin-2-one]
- IC50 [1]: > 10 µM
- IC50 ([2]; 72 h, WST-1, triplicate): > 10 µM
- IC50 ([3]; 72 h, WST-1, triplicate): > 10 µM
- IC50 ([4]; 72 h, WST-1, triplicate): > 10 µM

SMILES: COc1ccc(N2C(=O)[C@@H](N)[C@H]2c2ccccc2[N+](=O)[O-])cc1 (racemic) [4C, (±)-Cis-3-amino-1-(4-methoxyphenyl)-4-(2-nitrophenyl) azetidin-2-one]
- IC50 [1]: 7.37 ± 0.4 µM
- IC50 ([2]; 72 h, WST-1, triplicate): 7.28 ± 0.5 µM
- IC50 ([3]; 72 h, WST-1, triplicate): 5.91 ± 0.6 µM
- IC50 ([4]; 72 h, WST-1, triplicate): > 10 µM

SMILES: COc1ccc(N2C(=O)[C@@H](N)[C@@H]2c2ccccc2[N+](=O)[O-])cc1 (racemic) [4T, (±)-Trans-3-amino-1-(4-methoxyphenyl)-4-(2-nitrophenyl) azetidin-2-one]
- IC50 [1]: > 10 µM
- IC50 ([2]; 72 h, WST-1, triplicate): 8.12 ± 0.4 µM
- IC50 ([3]; 72 h, WST-1, triplicate): > 10 µM
- IC50 ([4]; 72 h, WST-1, triplicate): > 10 µM

SMILES: COc1ccc([C@@H]2[C@H](N)C(=O)N2c2ccccc2)cc1 (racemic) [2C, (±)-Cis-3-amino-4-(4-methoxyphenyl)-1-phenyl-azetidin-2-one]
- IC50 [1]: 8.03 ± 0.5 µM
- IC50 ([2]; 72 h, WST-1, triplicate): 6.2 ± 0.6 µM
- IC50 ([4]; 72 h, WST-1, triplicate): > 10 µM

SMILES: CC[C@]1(O)C[C@@H]2CN(CCc3c([nH]c4ccccc34)[C@@](C(=O)OC)(c3cc4c(cc3OC)N(C)[C@H]3[C@@](O)(C(=O)OC)[C@H](OC(C)=O)[C@]5(CC)C=CCN6CC[C@]43[C@@H]65)C2)C1 [Vinblastine, reference compound]
- IC50 ([2]; Homo sapiens, SiHa, 72 h, WST-1, triplicate): 10.9 ± 0.8 µM
- IC50 ([3]; Mus musculus, B16-F10, value marked * (ng/mL)): 0.055 ± 0.028 µg/mL
- IC50 ([4]; Homo sapiens, K562, 72 h, WST-1, triplicate): 0.006 µM

SMILES: Cc1ccc([C@H]2[C@H](N)C(=O)N2c2ccccc2)cc1 (racemic) [6T, (±)-Trans-3-amino-1-phenyl-4-(p-tolyl)azetidin-2-one]
- IC50 [1]: > 10 µM
- IC50 ([2]; 72 h, WST-1, triplicate): 4.79 ± 0.6 µM
- IC50 ([3]; 72 h, WST-1, triplicate): 5.79 ± 0.4 µM
- IC50 ([4]; 72 h, WST-1, triplicate): > 10 µM

SMILES: COc1ccc(N2C(=O)[C@@H](N)[C@@H]2c2ccccn2)cc1 (racemic) [7T, (±)-Trans-3-amino-1-(4-methoxyphenyl)-4-(2-pyridyl)azetidin-2-one]
- IC50 [1]: > 10 µM
- IC50 ([2]; 72 h, WST-1, triplicate): > 10 µM
- IC50 ([3]; 72 h, WST-1, triplicate): > 10 µM
- IC50 ([4]; 72 h, WST-1, triplicate): > 10 µM

SMILES: COc1ccc([C@H]2[C@H](N)C(=O)N2c2ccc(OC)cc2)cc1 (racemic) [1T, (±)-Trans-3-amino-1,4-bis(4-methoxyphenyl) azetidin-2-one]
- IC50 [1]: 7.91 ± 0.4 µM
- IC50 ([2]; 72 h, WST-1, triplicate): 7.17 ± 0.3 µM
- IC50 ([3]; 72 h, WST-1, triplicate): 5.16 ± 0.5 µM
- IC50 ([4]; 72 h, WST-1, triplicate): > 10 µM

SMILES: Cc1ccc([C@@H]2[C@H](N)C(=O)N2c2ccccc2)cc1 (racemic) [6C, (±)-Cis-3-amino-1-phenyl-4-(p-tolyl) azetidin-2-one]
- IC50 [1]: 6.89 ± 0.3 µM
- IC50 ([2]; 72 h, WST-1, triplicate): 2.34 ± 0.2 µM
- IC50 ([3]; 72 h, WST-1, triplicate): 0.7 ± 0.1 µM
- times higher potency than colchicine ([3]; B16F10 cell lines, compared to colchicine): six
- Morphological effect, Hematoxylin/Eosin staining [5]: loss of cytoplasm and decrease in the size of nuclei
- IC50 ([4]; 72 h, WST-1, triplicate): > 10 µM
- Morphological effect, Hematoxylin/Eosin staining [6]: appearance of multiple intracytoplasmic vacuoles
- Apoptosis through caspase-3 activation [7]: demonstrated apoptosis in B16F10 cancer cells through caspase-3 activation

SMILES: COc1ccc(N2C(=O)[C@@H](N)[C@H]2c2ccc(C)cc2)cc1 (racemic) [5C, (±)-Cis-3-amino-1-(4-methoxyphenyl)-4-(p-tolyl) azetidin-2-one]
- IC50 [1]: 7.01 ± 0.1 µM
- IC50 ([2]; 72 h, WST-1, triplicate): 4.03 ± 0.5 µM
- IC50 ([4]; 72 h, WST-1, triplicate): > 10 µM

SMILES: COc1ccc(N2C(=O)[C@@H](N)[C@@H]2c2ccc(C)cc2)cc1 (racemic) [5T, (±)-Trans-3-amino-1-(4-methoxyphenyl)-4-(p-tolyl)azetidin-2-one]
- IC50 [1]: > 10 µM
- IC50 ([2]; 72 h, WST-1, triplicate): 7.79 ± 0.5 µM
- IC50 ([3]; 72 h, WST-1, triplicate): 7.14 ± 0.6 µM
- IC50 ([4]; 72 h, WST-1, triplicate): > 10 µM

SMILES: COc1ccc([C@@H]2[C@H](N)C(=O)N2c2ccc(OC)cc2)cc1 (racemic) [1C, (±)-Cis-3-amino-1,4-bis(4-methoxyphenyl) azetidin-2-one]
- IC50 [1]: 6.21 ± 0.5 µM
- IC50 ([2]; 72 h, WST-1, triplicate): 4.21 ± 0.4 µM
- IC50 ([3]; 72 h, WST-1, triplicate): 3.33 ± 0.3 µM
- IC50 ([4]; 72 h, WST-1, triplicate): > 10 µM

SMILES: COc1ccc(N2C(=O)[C@@H](N)[C@H]2c2ccc(OC)c(OC)c2)cc1 (racemic) [3C, (±)-Cis-3-amino-4-(3,4-dimethoxyphenyl)-1-(4-methoxyphenyl) azetidin-2-one]
- IC50 [1]: 9.32 ± 0.6 µM
- IC50 ([2]; 72 h, WST-1, triplicate): 5.1 ± 0.4 µM
- IC50 ([3]; 72 h, WST-1, triplicate): < 5 µM and 3.91 µM
- IC50 ([4]; 72 h, WST-1, triplicate): 6.14 ± 0.4 µM

SMILES: CC(=O)O[C@H]1C(=O)[C@@]2(C)[C@H]([C@H](OC(=O)c3ccccc3)[C@]3(O)C[C@H](OC(=O)[C@H](O)[C@@H](NC(=O)c4ccccc4)c4ccccc4)C(C)=C1C3(C)C)[C@]1(OC(C)=O)CO[C@@H]1C[C@@H]2O [Paclitaxel, reference compound]
- IC50 [1]: 0.068 ± 0.02 µM
- IC50 ([2]; Homo sapiens, SiHa, value marked * (ng/mL)): 0.364 ± 0.31 µg/mL
- IC50 ([3]; Mus musculus, B16-F10, 72 h, WST-1, triplicate): 9.57 ± 0.2 µM
- Morphological effect, Hematoxylin/Eosin staining [5]: induced severe cell damage
- IC50 ([4]; Homo sapiens, K562, value marked * (ng/mL)): 0.0048 ± 0.0004 µg/mL
- Morphological effect, Hematoxylin/Eosin staining [6]: early apoptosis

SMILES: COc1ccc([C@H]2[C@H](N)C(=O)N2c2ccccc2)cc1 (racemic) [2T, (±)-Trans-3-amino-4-(4-methoxyphenyl)-1-phenyl-azetidin-2-one]
- IC50 [1]: > 10 µM
- IC50 ([2]; 72 h, WST-1, triplicate): 7.14 ± 0.5 µM
- IC50 ([3]; 72 h, WST-1, triplicate): 7.63 ± 0.4 µM
- IC50 ([4]; 72 h, WST-1, triplicate): > 10 µM

— paper PMC5514948, “Stereochemical preference toward oncotarget: Design, synthesis and in vitro anticancer evaluation of diastereomeric β-lactams” (Oncotarget, 2017)
